In the assay the test system is Normal Human dermal fibroblasts. The assay is described as follows: Procollagen assay (Procollagen Type-I C-Peptide EIA) in conditioned media of treated fibroblasts. It counts as cell-based. To be noted: 0.0005% compound, 48 hours, ELISA, p<0.05. The protocol: Normal Human dermal fibroblasts were grown in DMEM (Mediatech; cat. #: 15-013-CV) containing 10% Fetal Bovine Serum (Perbio; cat. #: SH30070.03), Penicillin/Streptomycin (Mediatech, Cat #30-001-C1), L-Glutamine (Mediatech; cat. #: 25-005-CI) at 37° C. and 10% CO2. Cells were stripped of serum overnight, followed by treatment with the compound of Formula I(b) (0.0005%) or vehicle (DMSO), in the absence of serum for 48 hours.
Reading was measured at 450 nm using a spectrophotometer.
Human dermal fibroblasts treated with 0.0005% the compound of Formula I(b) for 48 hours were analyzed by ELISA for expression levels of pro-collagen. […] All values are statistically significant at p<0.05.
A general note: In an ELISA, binding on a coated surface is turned into a signal by an enzyme label.

On to `N#Cc1cccc(CN2CCNC(=O)CC2c2nccs2)c1` (centres unmarked) [Formula I(b)], for which the “pro-collagen expression level relative to control, vehicle treated cells” value is reported as “significant increase”. Also, for the setting “serum-free, relative to vehicle (DMSO) control = 100%, 450 nm”, the Procollagen stood at 146%.
